Results published in patent publication US20230085307A1, “PYRIDAZINONE COMPOUND AND HERBICIDE” (NISSAN CHEMICAL CORPORATION, priority 2019, published 2023).

Experiments:
velvetleaf = test: Test Example 5: herbicidal effect by foliage application, plastic box (Table 20, symbol M); type: in vivo, velvetleaf (Abutilon theophrasti); details: foliage application, 320 g/ha, three weeks after application
In short: (§1)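 Foliar spray test: emulsion formulation diluted in water to a set application rate, sprayed onto 14-day-old plants raised in diluvial soil at 25° C to 30° C under glass. Both herbicidal effect and crop effect rated visually three weeks later.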

Chinese sprangletop = test: Test Example 3: herbicidal effect by foliage application, Wagner pot (Table 18, symbol D); type: in vivo, chinese sprangletop (Leptochloa chinensis); details: for herbicidal effect on D: Chinese sprangletop: amount of applied herbicide 320 g/ha; for herbicidal effect on Chinese sprangletop (D): 320 g/ha
In short: (§2)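 Plants were sown in alluvial soil held under 0.1–0.5 cm standing water and grown 14 days in a greenhouse at 25–30 °C. An emulsifiable formulation, water-diluted to the set dose, was then sprayed onto the foliage, and effects were scored three weeks later using previously defined criteria.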

windgrass = test: Test Example 5: herbicidal effect by foliage application, plastic box (Table 20, symbol L); type: in vivo, windgrass (Apera spica-venti); details: foliage application, 320 g/ha, three weeks after application
In short: as §1

Japanese bulrush = test: Test Example 1: herbicidal activity, application before weed generation under submerged conditions (Table 16, symbol B); type: in vivo, Japanese bulrush (Schoenoplectus juncoides); details: amount of applied herbicide 320 g/ha
In short: (§3)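 Alluvial soil was flooded to 4 cm depth, weed seeds were sown mixed and 2.5-leaf rice seedlings were transplanted. On sowing day, the compound's emulsion, diluted in water to a set dose, was applied to the water surface. Plants grew at 25–30 °C and were scored 0–5 after three weeks.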

green foxtail [1] = test: Test Example 4: herbicidal effect by soil treatment (Table 19, symbol G); type: in vivo, green foxtail (Setaria viridis); details: amount of applied herbicide 320 g/ha
In short: (§4)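 Herbicidal effect was rated 3 weeks after treatment, using the scoring criteria of an earlier test. The compound, formulated as an emulsion and diluted in water to a set herbicide amount, had been sprayed uniformly on soil over freshly sown seeds. Growth took place in a greenhouse at 25° C. to 30° C.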

southern crabgrass = test: Test Example 4: herbicidal effect by soil treatment (Table 19, symbol F); type: in vivo, southern crabgrass (Digitaria ciliaris); details: amount of applied herbicide 320 g/ha
In short: as §4

redroot pigweed [2] = test: Test Example 4: herbicidal effect by soil treatment (Table 19, symbol N); type: in vivo, redroot pigweed (Amaranthus retroflexus); details: amount of applied herbicide 320 g/ha
In short: as §4

lambsquarters = test: Test Example 5: herbicidal effect by foliage application, plastic box (Table 20, symbol O); type: in vivo, lambsquarters (Chenopodium album); details: foliage application, 320 g/ha, three weeks after application
In short: as §1

blackgrass [3] = test: Test Example 4: herbicidal effect by soil treatment (Table 19, symbol J); type: in vivo, blackgrass (Alopecurus myosuroides); details: amount of applied herbicide 320 g/ha
In short: as §4

Italian ryegrass = test: Test Example 5: herbicidal effect by foliage application, plastic box (Table 20, symbol K); type: in vivo, Italian ryegrass (Lolium multiflorum); details: foliage application, 320 g/ha, three weeks after application
In short: as §1

late watergrass = test: Test Example 1: herbicidal activity, application before weed generation under submerged conditions (Table 16, symbol A); type: in vivo, late watergrass (Echinochloa oryzicola); details: amount of applied herbicide 320 g/ha
In short: as §3

green foxtail [4] = test: Test Example 5: herbicidal effect by foliage application, plastic box (Table 20, symbol G); type: in vivo, green foxtail (Setaria viridis); details: foliage application, 320 g/ha, three weeks after application
In short: as §1

redroot pigweed [5] = test: Test Example 5: herbicidal effect by foliage application, plastic box (Table 20, symbol N); type: in vivo, redroot pigweed (Amaranthus retroflexus); details: foliage application, 320 g/ha, three weeks after application
In short: as §1

rice flat sedge = test: Test Example 3: herbicidal effect by foliage application, Wagner pot (Table 18, symbol E); type: in vivo, rice flat sedge (Cyperus iria); details: for herbicidal effect on E: rice flat sedge: amount of applied herbicide 320 g/ha; for herbicidal effect on rice flat sedge (E): 320 g/ha
In short: as §2

barnyard grass [6] = test: Test Example 3: herbicidal effect by foliage application, Wagner pot (Table 18, symbol H); type: in vivo, barnyard grass (Echinochloa crus-galli); details: for herbicidal effect on H: barnyard grass: amount of applied herbicide 320 g/ha; for herbicidal effect on barnyard grass (H): 320 g/ha
In short: as §2

blackgrass [7] = test: Test Example 5: herbicidal effect by foliage application, plastic box (Table 20, symbol J); type: in vivo, blackgrass (Alopecurus myosuroides); details: foliage application, 320 g/ha, three weeks after application
In short: as §1

barnyard grass [8] = test: Test Example 5: herbicidal effect by foliage application, plastic box (Table 20, symbol H); type: in vivo, barnyard grass (Echinochloa crus-galli); details: foliage application, 320 g/ha, three weeks after application
In short: as §1

persian speedwell = test: Test Example 5: herbicidal effect by foliage application, plastic box (Table 20, symbol R); type: in vivo, Persian speedwell (Veronica persica); details: foliage application, 320 g/ha, three weeks after application
In short: as §1

| SMILES | M: velvetleaf, herbicidal effect grade (velvetleaf) | herbicidal effect on D: Chinese sprangletop (Chinese sprangletop) | L: windgrass, herbicidal effect grade (windgrass) | Herbicidal effect, B: Japanese bulrush (Japanese bulrush) | G: green foxtail, herbicidal effect grade (green foxtail [1]) | F: southern crabgrass, herbicidal effect grade (southern crabgrass) | N: redroot pigweed, herbicidal effect grade (redroot pigweed [2]) | O: lambsquarters, herbicidal effect grade (lambsquarters) | J: blackgrass, herbicidal effect grade (blackgrass [3]) | K: Italian ryegrass, herbicidal effect grade (Italian ryegrass) | Herbicidal effect, A: late watergrass (late watergrass) | G: green foxtail, herbicidal effect grade (green foxtail [4]) | N: redroot pigweed, herbicidal effect grade (redroot pigweed [5]) | herbicidal effect on E: rice flat sedge (rice flat sedge) | herbicidal effect on H: barnyard grass (barnyard grass [6]) | J: blackgrass, herbicidal effect grade (blackgrass [7]) | H: barnyard grass, herbicidal effect grade (barnyard grass [8]) | R: persian speedwell, herbicidal effect grade (persian speedwell) | herbicidal effect on Chinese sprangletop (D) (Chinese sprangletop) | herbicidal effect on rice flat sedge (E) (rice flat sedge) | other results |
| --- | --- | --- | --- | --- | --- | --- | --- | --- | --- | --- | --- | --- | --- | --- | --- | --- | --- | --- | --- | --- | --- |
| COc1ccccc1-c1sc2cc(F)ccc2c1-c1c(OS(=O)(=O)c2ccc(C)cc2)c(C)nn(C)c1=O [3-027] | 5 (Herbicidal rate of 90% or more (almost completely withered)) | 3 (Herbicidal rate of 40% or more and less than 70%) | 5 (Herbicidal rate of 90% or more (almost completely withered)) | 3 (Herbicidal rate of 40% or more and less than 70%) | 0 (Herbicidal rate of 5% or less (almost no effect)) | 0 (Herbicidal rate of 5% or less (almost no effect)) | 0 (Herbicidal rate of 5% or less (almost no effect)) | 3 (Herbicidal rate of 40% or more and less than 70%) | 3 (Herbicidal rate of 40% or more and less than 70%) | 3 (Herbicidal rate of 40% or more and less than 70%) | 2 (Herbicidal rate of 20% or more and less than 40%) | 5 (Herbicidal rate of 90% or more (almost completely withered)) | 5 (Herbicidal rate of 90% or more (almost completely withered)) | 5 (Herbicidal rate of 90% or more (almost completely withered)) | 5 (Herbicidal rate of 90% or more (almost completely withered)) | 4 (Herbicidal rate of 70% or more and less than 90%) | 5 (Herbicidal rate of 90% or more (almost completely withered)) | 0 (Herbicidal rate of 5% or less (almost no effect)) |  |  |  |
| COc1ccccc1-c1sc2cc(F)ccc2c1-c1c(OS(=O)(=O)N(C)C)c(C)nn(C)c1=O [3-028] | 4 (Herbicidal rate of 70% or more and less than 90%) | 3 (Herbicidal rate of 40% or more and less than 70%) | 5 (Herbicidal rate of 90% or more (almost completely withered)) | 0 (Herbicidal rate of 5% or less (almost no effect)) | 0 (Herbicidal rate of 5% or less (almost no effect)) | 0 (Herbicidal rate of 5% or less (almost no effect)) | 0 (Herbicidal rate of 5% or less (almost no effect)) | 2 (Herbicidal rate of 20% or more and less than 40%) | 0 (Herbicidal rate of 5% or less (almost no effect)) | 4 (Herbicidal rate of 70% or more and less than 90%) | 2 (Herbicidal rate of 20% or more and less than 40%) | 4 (Herbicidal rate of 70% or more and less than 90%) | 5 (Herbicidal rate of 90% or more (almost completely withered)) | 5 (Herbicidal rate of 90% or more (almost completely withered)) | 4 (Herbicidal rate of 70% or more and less than 90%) | 4 (Herbicidal rate of 70% or more and less than 90%) | 2 (Herbicidal rate of 20% or more and less than 40%) | 0 (Herbicidal rate of 5% or less (almost no effect)) |  |  |  |
| CCCC(=O)Oc1c(C)nn(C)c(=O)c1-c1c(-c2ccc(Cl)cc2)sc2cc(Cl)ccc12 [3-034] | 4 (Herbicidal rate of 70% or more and less than 90%) |  | 5 (Herbicidal rate of 90% or more (almost completely withered)) | 3 (Herbicidal rate of 40% or more and less than 70%) | 0 (Herbicidal rate of 5% or less (almost no effect)) | 0 (Herbicidal rate of 5% or less (almost no effect)) | 3 (Herbicidal rate of 40% or more and less than 70%) | 4 (Herbicidal rate of 70% or more and less than 90%) | 0 (Herbicidal rate of 5% or less (almost no effect)) | 4 (Herbicidal rate of 70% or more and less than 90%) | 3 (Herbicidal rate of 40% or more and less than 70%) | 4 (Herbicidal rate of 70% or more and less than 90%) | 4 (Herbicidal rate of 70% or more and less than 90%) |  |  | 4 (Herbicidal rate of 70% or more and less than 90%) | 3 (Herbicidal rate of 40% or more and less than 70%) | 5 (Herbicidal rate of 90% or more (almost completely withered)) | 4 (Herbicidal rate of 70% or more and less than 90%) | 5 (Herbicidal rate of 90% or more (almost completely withered)) | herbicidal effect on barnyard grass (H) (barnyard grass [6]): 5 (Herbicidal rate of 90% or more (almost completely withered)) |
| CCOc1ccccc1-c1sc2cc(Cl)ccc2c1-c1c(O)c(C)nn(C)c1=O [3-039] | 5 (Herbicidal rate of 90% or more (almost completely withered)) |  | 4 (Herbicidal rate of 70% or more and less than 90%) | 1 (Herbicidal rate of 5% or more and less than 20%) | 4 (Herbicidal rate of 70% or more and less than 90%) | 5 (Herbicidal rate of 90% or more (almost completely withered)) | 4 (Herbicidal rate of 70% or more and less than 90%) | 3 (Herbicidal rate of 40% or more and less than 70%) | 0 (Herbicidal rate of 5% or less (almost no effect)) | 4 (Herbicidal rate of 70% or more and less than 90%) | 2 (Herbicidal rate of 20% or more and less than 40%) | 5 (Herbicidal rate of 90% or more (almost completely withered)) | 4 (Herbicidal rate of 70% or more and less than 90%) |  |  | 4 (Herbicidal rate of 70% or more and less than 90%) | 5 (Herbicidal rate of 90% or more (almost completely withered)) | 5 (Herbicidal rate of 90% or more (almost completely withered)) | 3 (Herbicidal rate of 40% or more and less than 70%) | 5 (Herbicidal rate of 90% or more (almost completely withered)) | herbicidal effect on barnyard grass (H) (barnyard grass [6]): 4 (Herbicidal rate of 70% or more and less than 90%) |
